pEC50: −log10 of the molar value.
Legend:
GSK-3 = details: Ring et al. 2003 / Cline et al. 2002, cited from earlier work; for pEC50: read-out: half-maximal effective concentration [EC50]
[1] = mouse, in vivo, ip, 30 mg/kg
Procedure: (b) Blood glucose levels in peripheral blood of recipient mice following 5-week in vivo administration of 30 mg/kg GSK-3 inhibitor or vehicle control. Error bars represent SEM (n=6).

SMILES | selectivity for GSK-3 (GSK-3) | pEC50 (GSK-3) | glycemic state (blood glucose) of transplanted recipients [1]
O=[N+]([O-])c1ccc(NCCNc2ncc(-c3ncc[nH]3)c(-c3ccc(Cl)cc3Cl)n2)nc1 [CHIR-837] | > 5,000 fold | 6.43 | 
Cc1c[nH]c(-c2cnc(NCCNc3ccc(C#N)cn3)nc2-c2ccc(Cl)cc2Cl)n1 [CHIR-911] |  | […] | maintaining a normoglycemic state

— patent US8372397B2, “Methods for regulation of stem cells” (priority 2004, dated 2013)
